Columns and labels:
APP translation in SN = assay: 35S-Met labeling and immunoprecipitation of newly synthesized APP in synaptoneurosomes; format: cell-based, mouse; details: WT SN, 40 μM anisomycin + 100 μM DHPG, 15 min
Description: WT and KO SNs (450 μl) were mixed with 25 μl Redivue Pro-Mix-L [^35S] for 5 min prior to stimulation with 25 μl 2 mM DHPG. Samples were flash frozen at the indicated times. To analyze new protein synthesis, SN lysates were cleared of free isotope, Percoll®, and sucrose by purification with the PAGEprep Advance kit according to the manufacturer's directions. Protein concentrations were determined by the BCA assay, and 15 μg protein was denatured and loaded per lane on 12% SDS gels for content analysis. Gels were dried and exposed to a phosphorimager screen to identify the results of these assays.
To specifically analyze APP synthesis, WT and KO SN lysates (500 μl) were immunoprecipitated with APP antibody. Briefly, SN lysates were precleared with protein A magnetic beads in 1 ml volumes containing 500 μl SNs, 500 μl 2×IP buffer (20 mM HEPES (pH 7.4), 400 mM NaCl, 60 mM EDTA (pH 8), and 2% Triton X-100), protease inhibitor cocktail, and 100 μl packed fresh protein A magnetic beads. For the immunoprecipitations, 10 μg anti-APP antibody (Zymed catalog number 51-2700) and fresh protein A magnetic beads were added and mixed overnight at 4° C. The beads were washed three times with IP buffer, and the final, washed pellets were suspended in 40 μl 2×SDS sample buffer and boiled for 5 min; the proteins were then separated on 12% SDS gels. The gels were transferred to a nitrocelluose membrane, dried, exposed to a phosphorimager screen, and scanned on a STORM 860 phosphorimager (Molecular Dynamics http://www6.amershambiosciences.com). APP bands at 120 kDa were quantitated with ImageQuant software (GE Healthcare Life Sciences, http://www4.amershambiosciences.com).
For mGluR5 inhibitor studies, SNs (425 μl) were preincubated with 25 μl anisomycin (40 μM final concentration) or MPEP (10 μM final concentration) for 10 min prior to the addition of 25 μl ^35S-Met for 5 min and stimulation with DHPG (100 μM final concentration) for 15 min. Samples were processed as described in the preceding paragraph.
To further assess FMRP regulation of APP levels in brain, cortical SN were prepared from WT mice and overall protein synthesis analyzed in response to DHPG (100 μM)-induced mGluR5 activation. SN were metabolically active as assessed by ^35S-Met incorporation. […]
These conclusions were tested by assessing the effects on APP translation of contacting SN with a group 1 mGluR5 antagonist, 2-methyl-6-(phenylethynyl)-pyridine (MPEP). […] To assess the effect of MPEP, a specific mGluR5 antagonist, on DHPG stimulation of de novo APP synthesis, SN were pre-treated with 10 μM MPEP for 10 min prior to the addition of ^35S-Met for 5 min and stimulation with 100 μM DHPG for 15 min. ^35S-Met-labeled APP was immunoprecipitated with anti-APP antibodies and analyzed by SDS-PAGE. […]

rat mGluR7a = rat mGluR7a (Rattus norvegicus, UniProt P35400); details: doses up to 10 μm; cited from earlier work
mGluR5 = mGluR5 (Homo sapiens, UniProt P41594); details: shared allosteric modulatory site; cited from earlier work
[1] = Tolerability of fenobam-supplemented diet in Tg2576 mice; format: in vivo
Description: (§1) Mice were fed a fenobam-supplemented mouse food that was a purified ingredient diet formulated by Research Diets, Inc. (New Brunswick, N.J.) to match Purina 5015 lab diet in protein, carbohydrate and fat calories. For chronic dosing, the diet was supplemented with 0.2 g fenobam per kg lab diet and colored red for visual differentiation with the placebo food.

[2] = test system: audiogenic seizures in mice; assay: Audiogenic seizure (AGS) testing; format: in vivo, mouse; details: treated (immunized or Purina + drug)
anxiety in humans = details: cited from earlier work
rat mGluR8a = rat mGluR8a (Rattus norvegicus, UniProt P70579); details: doses up to 10 μm; cited from earlier work
[3] = test system: Aβ1-40 and Aβ1-42 in Tg2576 mouse brain; assay: Brain Aβ ELISA after chronic fenobam-supplemented diet in Tg2576 mice; details: one month
Description: FIG. 12 is a graph illustrating the effects of fenobam treatment in Tg2576 mice. Tg2576 mice were fed placebo or fenobam-supplemented lab diet for one month prior to harvesting brains for ELISA assays. For chronic dosing, the diet was supplemented with 0.2 g fenobam per kg lab diet and colored red for visual differentiation with the placebo food. Whole brain homogenates from control and fenobam-treated mice were analyzed by ELISA for Aβ1-40 (left) and Aβ1-42 (right). Data were plotted as ng/mL Aβ per μg soluble brain lysate. […] The left bar in each group represents Aβ levels in mice fed with placebo food; and the right bar in each group represents Aβ levels in mice fed with fenobam-supplemented food.
as §1
After one month of chronic fenobam dosing, brain tissue was harvested and Aβ levels measured. Specifically assessed by ELISA were human (expressed from the APPSwe transgene) and mouse (endogenous) Aβ1-40 and Aβ1-42 levels.

anxiety in mice = details: cited from earlier work
rat mGluR4a = rat mGluR4a (Rattus norvegicus, UniProt P31423); details: doses up to 10 μm; cited from earlier work
[4] = test system: Aβ1-40 and Aβ1-42 in Fmr-1 KO mouse brain; assay: Brain region Aβ ELISA after fenobam-supplemented diet in Fmr-1 KO mice
Description: Fmr-1 KO mice were fed placebo or fenobam-supplemented lab diet for two months prior to harvesting brains for ELISA assays. Homogenates of hippocampus (H), cortex (Cx) and cerebellum (Cb) were analyzed by ELISA for Aβ1-40 and Aβ1-42. Data were plotted as a percentage of Aβ compared to levels in control mouse hippocampus. C: control, F: Fenobam.
Fmr-1 KO mice were fed placebo or fenobam-supplemented lab diet for one month prior to harvesting brains for ELISA assays. Homogenates of hippocampus (H), cortex (Cx) and cerebellum (Cb) were analyzed by ELISA for Aβ1-40 and Aβ1-42. Data were plotted as a percentage of Aβ compared to levels in control mouse hippocampus.

[5] = humans, cited from earlier work
anxiety in rats = details: cited from earlier work
rat mGluR2 = rat mGluR2 (Rattus norvegicus, UniProt P31421); details: doses up to 10 μm; cited from earlier work
rat mGluR1a = rat mGluR1a (Rattus norvegicus, UniProt P23385); details: doses up to 10 μm; cited from earlier work
Sequence of rat mGluR1a (P23385 19-1199): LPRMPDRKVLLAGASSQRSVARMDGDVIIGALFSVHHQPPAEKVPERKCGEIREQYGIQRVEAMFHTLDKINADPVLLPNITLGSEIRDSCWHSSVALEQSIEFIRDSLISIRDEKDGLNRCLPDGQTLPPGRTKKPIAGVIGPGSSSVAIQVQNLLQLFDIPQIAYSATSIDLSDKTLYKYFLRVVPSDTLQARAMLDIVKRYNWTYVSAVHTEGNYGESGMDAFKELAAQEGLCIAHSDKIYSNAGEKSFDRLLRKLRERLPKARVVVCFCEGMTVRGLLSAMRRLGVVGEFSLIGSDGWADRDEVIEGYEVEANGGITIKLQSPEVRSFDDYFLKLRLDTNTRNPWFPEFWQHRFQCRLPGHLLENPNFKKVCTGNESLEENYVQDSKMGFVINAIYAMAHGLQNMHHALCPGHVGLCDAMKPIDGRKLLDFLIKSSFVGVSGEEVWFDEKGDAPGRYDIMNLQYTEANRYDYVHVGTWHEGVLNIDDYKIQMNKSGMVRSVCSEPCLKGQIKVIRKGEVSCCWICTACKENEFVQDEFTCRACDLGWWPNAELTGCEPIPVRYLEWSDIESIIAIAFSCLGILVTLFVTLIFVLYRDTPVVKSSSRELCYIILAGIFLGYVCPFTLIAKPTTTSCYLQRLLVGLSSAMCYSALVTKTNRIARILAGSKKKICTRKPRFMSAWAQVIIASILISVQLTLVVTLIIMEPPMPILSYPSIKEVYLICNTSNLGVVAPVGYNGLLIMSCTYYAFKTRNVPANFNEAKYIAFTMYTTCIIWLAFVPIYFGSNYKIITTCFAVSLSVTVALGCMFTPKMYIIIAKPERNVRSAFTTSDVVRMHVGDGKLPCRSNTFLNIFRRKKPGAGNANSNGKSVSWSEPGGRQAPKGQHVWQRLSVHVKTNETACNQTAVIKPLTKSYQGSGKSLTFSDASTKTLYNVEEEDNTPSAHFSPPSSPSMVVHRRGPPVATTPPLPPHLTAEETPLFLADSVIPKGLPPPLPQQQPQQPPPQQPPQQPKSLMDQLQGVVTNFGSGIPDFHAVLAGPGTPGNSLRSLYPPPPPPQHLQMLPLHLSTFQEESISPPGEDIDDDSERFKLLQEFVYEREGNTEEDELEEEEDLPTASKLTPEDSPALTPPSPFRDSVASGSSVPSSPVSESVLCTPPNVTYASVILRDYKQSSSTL

Sequence of rat mGluR4a (P31423 33-912): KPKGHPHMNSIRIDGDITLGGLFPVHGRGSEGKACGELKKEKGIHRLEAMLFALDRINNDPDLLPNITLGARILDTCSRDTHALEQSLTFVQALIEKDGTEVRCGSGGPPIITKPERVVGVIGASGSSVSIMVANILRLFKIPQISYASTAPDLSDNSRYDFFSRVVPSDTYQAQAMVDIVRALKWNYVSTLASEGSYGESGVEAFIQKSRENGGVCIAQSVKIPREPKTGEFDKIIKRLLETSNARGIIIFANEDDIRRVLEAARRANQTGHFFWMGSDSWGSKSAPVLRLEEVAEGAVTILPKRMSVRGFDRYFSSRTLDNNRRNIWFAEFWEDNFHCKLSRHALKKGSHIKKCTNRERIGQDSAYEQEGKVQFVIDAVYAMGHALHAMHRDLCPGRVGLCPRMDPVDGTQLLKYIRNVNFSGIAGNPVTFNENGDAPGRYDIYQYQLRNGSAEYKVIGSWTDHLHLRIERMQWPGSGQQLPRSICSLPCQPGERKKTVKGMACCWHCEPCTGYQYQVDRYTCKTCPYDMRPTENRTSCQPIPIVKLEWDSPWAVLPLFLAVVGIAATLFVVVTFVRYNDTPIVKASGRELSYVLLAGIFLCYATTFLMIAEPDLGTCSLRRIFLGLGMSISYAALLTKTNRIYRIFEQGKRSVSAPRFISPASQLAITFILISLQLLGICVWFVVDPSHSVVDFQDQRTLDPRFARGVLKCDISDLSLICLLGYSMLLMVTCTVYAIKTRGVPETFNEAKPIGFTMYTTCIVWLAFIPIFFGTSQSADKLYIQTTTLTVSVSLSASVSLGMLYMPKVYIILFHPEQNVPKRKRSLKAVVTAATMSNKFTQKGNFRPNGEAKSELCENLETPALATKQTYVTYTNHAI
Sequence of mGluR5 (P41594 21-1212): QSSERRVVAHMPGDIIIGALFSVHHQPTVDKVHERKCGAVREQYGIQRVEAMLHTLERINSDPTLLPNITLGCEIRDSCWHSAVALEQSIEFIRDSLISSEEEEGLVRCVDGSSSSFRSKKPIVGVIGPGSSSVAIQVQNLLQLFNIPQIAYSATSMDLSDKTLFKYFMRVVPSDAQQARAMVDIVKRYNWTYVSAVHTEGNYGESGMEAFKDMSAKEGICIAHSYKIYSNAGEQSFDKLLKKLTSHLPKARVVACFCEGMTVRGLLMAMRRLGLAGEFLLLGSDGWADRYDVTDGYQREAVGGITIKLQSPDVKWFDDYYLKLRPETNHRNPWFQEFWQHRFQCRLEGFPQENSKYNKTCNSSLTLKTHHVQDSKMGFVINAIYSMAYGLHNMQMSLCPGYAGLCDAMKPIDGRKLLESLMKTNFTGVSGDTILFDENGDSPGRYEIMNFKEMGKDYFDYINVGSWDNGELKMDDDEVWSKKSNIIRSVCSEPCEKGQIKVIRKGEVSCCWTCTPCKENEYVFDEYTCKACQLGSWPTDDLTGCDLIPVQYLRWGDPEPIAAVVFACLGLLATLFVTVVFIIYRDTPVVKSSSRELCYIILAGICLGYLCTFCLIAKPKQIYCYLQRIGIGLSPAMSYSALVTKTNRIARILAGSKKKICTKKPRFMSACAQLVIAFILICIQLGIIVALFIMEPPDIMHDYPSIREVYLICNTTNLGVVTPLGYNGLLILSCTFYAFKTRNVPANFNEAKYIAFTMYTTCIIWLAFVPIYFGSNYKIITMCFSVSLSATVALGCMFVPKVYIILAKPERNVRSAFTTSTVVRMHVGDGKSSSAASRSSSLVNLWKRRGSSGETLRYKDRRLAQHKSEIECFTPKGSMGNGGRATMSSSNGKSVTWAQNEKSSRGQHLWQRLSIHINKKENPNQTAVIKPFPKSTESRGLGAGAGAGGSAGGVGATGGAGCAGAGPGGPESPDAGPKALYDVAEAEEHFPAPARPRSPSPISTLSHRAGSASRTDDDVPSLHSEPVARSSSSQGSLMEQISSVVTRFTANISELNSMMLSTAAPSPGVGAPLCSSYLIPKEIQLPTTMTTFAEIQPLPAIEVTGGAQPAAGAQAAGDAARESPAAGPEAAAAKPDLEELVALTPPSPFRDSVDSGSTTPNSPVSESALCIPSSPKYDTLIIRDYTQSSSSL
Sequence of rat mGluR2 (P31421 19-872): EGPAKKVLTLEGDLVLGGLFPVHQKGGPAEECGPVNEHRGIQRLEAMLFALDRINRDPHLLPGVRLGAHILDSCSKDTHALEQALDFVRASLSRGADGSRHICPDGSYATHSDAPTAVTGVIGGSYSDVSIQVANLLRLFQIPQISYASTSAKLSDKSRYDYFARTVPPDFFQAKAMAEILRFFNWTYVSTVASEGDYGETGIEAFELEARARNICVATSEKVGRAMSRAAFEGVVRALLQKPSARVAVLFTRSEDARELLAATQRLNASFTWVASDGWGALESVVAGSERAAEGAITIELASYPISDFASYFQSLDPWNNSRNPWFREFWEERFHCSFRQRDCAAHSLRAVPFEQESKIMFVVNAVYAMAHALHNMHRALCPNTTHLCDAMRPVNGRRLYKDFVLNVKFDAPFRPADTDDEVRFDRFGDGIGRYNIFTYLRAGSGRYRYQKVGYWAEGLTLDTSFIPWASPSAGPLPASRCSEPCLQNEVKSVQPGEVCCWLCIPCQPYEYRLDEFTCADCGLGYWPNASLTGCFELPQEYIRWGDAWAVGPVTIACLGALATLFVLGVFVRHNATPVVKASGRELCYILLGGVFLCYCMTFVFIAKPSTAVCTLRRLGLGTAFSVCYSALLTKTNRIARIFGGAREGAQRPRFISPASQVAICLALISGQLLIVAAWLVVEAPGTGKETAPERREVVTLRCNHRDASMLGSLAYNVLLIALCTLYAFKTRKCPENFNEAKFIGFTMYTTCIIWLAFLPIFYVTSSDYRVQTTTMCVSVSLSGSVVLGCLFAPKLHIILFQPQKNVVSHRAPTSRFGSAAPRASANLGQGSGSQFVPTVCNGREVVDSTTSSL
Sequence of rat mGluR7a (P35400 35-915): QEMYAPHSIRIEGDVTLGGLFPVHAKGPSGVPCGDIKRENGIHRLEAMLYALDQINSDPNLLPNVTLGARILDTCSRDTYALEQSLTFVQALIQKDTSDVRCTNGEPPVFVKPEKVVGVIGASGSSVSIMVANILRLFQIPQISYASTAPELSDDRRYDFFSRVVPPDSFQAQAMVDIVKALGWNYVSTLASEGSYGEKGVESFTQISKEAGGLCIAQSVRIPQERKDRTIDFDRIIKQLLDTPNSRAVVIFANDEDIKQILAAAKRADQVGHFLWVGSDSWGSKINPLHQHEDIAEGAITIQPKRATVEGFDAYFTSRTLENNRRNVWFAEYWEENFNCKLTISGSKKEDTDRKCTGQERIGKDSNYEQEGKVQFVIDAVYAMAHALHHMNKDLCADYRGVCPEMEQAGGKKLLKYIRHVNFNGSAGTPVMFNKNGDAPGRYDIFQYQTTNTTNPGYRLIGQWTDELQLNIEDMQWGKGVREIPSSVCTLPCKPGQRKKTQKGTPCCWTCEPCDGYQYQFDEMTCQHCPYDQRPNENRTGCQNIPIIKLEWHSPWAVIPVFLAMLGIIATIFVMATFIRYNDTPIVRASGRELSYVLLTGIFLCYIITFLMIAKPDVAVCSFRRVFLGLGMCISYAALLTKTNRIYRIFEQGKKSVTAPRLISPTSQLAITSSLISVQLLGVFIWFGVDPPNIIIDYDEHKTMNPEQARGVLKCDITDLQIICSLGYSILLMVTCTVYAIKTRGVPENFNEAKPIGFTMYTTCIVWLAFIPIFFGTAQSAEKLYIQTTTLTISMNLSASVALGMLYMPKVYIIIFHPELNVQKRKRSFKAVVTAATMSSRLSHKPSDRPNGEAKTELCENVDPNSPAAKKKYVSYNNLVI

Question: Which “effect on mGluR activation of APP translation” value (APP translation in SN) does the source give for `COc1ccc(C[C@H]2NC[C@H](O)[C@H]2OC(C)=O)cc1` [anisomycin] here?
Answer: blocked

Question: What does the source list for `CN1CC(=O)N=C1NC(=O)Nc1cccc(Cl)c1.O=S(=O)(O)O` [fenobam]?
Answer: activity toward rat mGluR7a (rat mGluR7a): no activity; mGluR5 antagonist character (mGluR5): potent and highly selective noncompetitive antagonists; premature death ([1]; Tg2576 mice, 0.2 g fenobam per kg diet, chronic dosing): no incidences of premature death; adverse side effects ([1]; mouse, in vivo): No adverse side effects; weight gain ([1]; mouse, in vivo): normal weight gain; % Death ([2]; DS (Ts65Dn) mice): 0%; % WR ([2]; DS (Ts65Dn) mice): 58%; % AGS ([2]; DS (Ts65Dn) mice, listed as Fenobaum): 0%; % AGS ([2]; DS (Ts65Dn) mice, listed as fenobaum): attenuates seizures; % AGS ([2]; WT littermates of DS model): 0%; % Death ([2]; WT littermates of DS model): 0%; % WR ([2]; WT littermates of DS model): 0%; effect on anxiety (anxiety in humans): reduces anxiety; activity toward rat mGluR8a (rat mGluR8a): no activity; mouse Aβ1-42 levels ([3]; Tg2576, fenobam diet): no change; mouse Aβ1-40 level in brain ([3]; Tg2576 males on fenobam food): 60 ng/mL/µg; human Aβ levels, control vs fenobam-fed ([3]; Tg2576 mice, 0.2 g fenobam per kg diet): No change; decrease in mouse Aβ1-40 levels ([3]; male Tg2576, 0.2 g fenobam per kg diet): 11.5 fold; effect on anxiety (anxiety in mice): reduces anxiety; activity toward rat mGluR4a (rat mGluR4a): no activity; decrease in Aβ1-42 in the cortex ([4]; fenobam food 1 month): 40%; Aβ1-42 in hippocampus and cortex ([4]; fenobam food 2 months): modest reductions; decrease in Aβ1-40 in cerebellum ([4]; fenobam food 2 months): 19%; decrease in Aβ1-40 in cortex ([4]; fenobam food 2 months): 26%; reduction in Aβ1-42 in the cerebellum ([4]; fenobam food 2 months): 4.2 fold; side effects ([5]; therapeutically-effective dosages): no harmful side effects; side effects in one study (Friedmann et al., 1980) [5]: psycho-stimulating properties; effect on anxiety (anxiety in rats): reduces anxiety; activity toward rat mGluR2 (rat mGluR2): no activity; activity toward rat mGluR1a (rat mGluR1a): no activity
